Experimental data taken from publication PMC9246256, “Structure-based optimization of type III indoleamine 2,3-dioxygenase 1 (IDO1) inhibitors” (Journal of Enzyme Inhibition and Medicinal Chemistry, 2022).
“And” between values parts separate entries of the source, which are not always exact repeats. Equal values may be shown once. “Also recorded” adds a separate entry of the source. Read-outs that look alike come from different tables or passages of the source.

How the values were obtained:
[1] = system: IDO1; conditions: values of Panda and co-workers, not reproduced here; read-out: published IC50 values; cited from earlier work
[2] = biological target: T1, purified recombinant IDO1 (Homo sapiens, UniProt P14902); assay: Enzymatic IDO1 inhibition assay (ascorbate/methylene blue reduction system, HPLC detection of kynurenine); type: biochemical; conditions: for IC50: enzymatic, L-Trp 100 µM, 0.01% Triton X-100, 5% DMSO, 20 min at room temperature, pH 6.5, duplicates, read-out: IC50 [ μ M] (SD); for LE [kcal/mol/HA]: ligand efficiency, LE = -RT log(IC50)/number of heavy atoms, from enzymatic IC50
T1 construct: Full-length human IDO1 gene was cloned into the pET-28a vector; inferred from pET-28a vector and HisTrap purification; made in house; host or cells: E. coli Rosetta (DE3)
T1 sequence (P14902 whole entry): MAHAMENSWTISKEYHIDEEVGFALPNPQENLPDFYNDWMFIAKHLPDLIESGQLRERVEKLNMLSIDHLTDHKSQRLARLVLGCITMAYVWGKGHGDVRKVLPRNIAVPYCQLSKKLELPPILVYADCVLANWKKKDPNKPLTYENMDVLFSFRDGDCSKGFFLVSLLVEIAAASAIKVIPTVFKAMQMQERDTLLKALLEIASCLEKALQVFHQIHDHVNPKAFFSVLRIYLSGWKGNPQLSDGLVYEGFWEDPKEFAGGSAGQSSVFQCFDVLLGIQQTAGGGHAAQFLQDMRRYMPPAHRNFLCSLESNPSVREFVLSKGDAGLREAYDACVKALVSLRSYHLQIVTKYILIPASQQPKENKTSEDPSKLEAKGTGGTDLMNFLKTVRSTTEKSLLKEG
Procedure: Enzymatic IC50 values were measured with the ascorbate/methylene blue reduction system[85] in presence of a non-ionic detergent to reduce compound aggregation as described before[28]. Kynurenine and L-Trp concentrations were determined by HPLC through UV detection.
Full-length human IDO1 gene was cloned into the pET-28a vector and expressed in E. coli Rosetta (DE3) cells. […] The culture was harvested and frozen at −80 °C until further use. The frozen cells were lysed by sonication in 20 mM Tris pH 7, 400 mM NaCl, 1 mM MgCl2, 20 mM imidazole, 1 mM DTT, 0.5 mg/mL Lysozyme and Protease inhibitor. After centrifugation, the supernatant was loaded into a HisTrap HP column pre-equilibrated with buffer containing 20 mM Tris pH 7, 500 mM NaCl and 20 mM imidazole, and eluted with the same buffer containing 500 mM imidazole. Fractions containing IDO1 were pooled, concentrated, and injected on a size exclusion chromatography column (HiLoad Superdex S75 16/60) to increase purity. hIDO1 fractions were concentrated to 20 mg/mL in 20 mM Tris pH 7 and 150 mM NaCl.
The enzymatic inhibition assays were performed as described by Takikawa et al.[130] with some modifications. Briefly, the reaction mixture (100 µL) contained potassium phosphate buffer (100 mM, pH 6.5) ascorbic acid (20 mM), catalase (400 units/mL), methylene blue (10 µM), purified recombinant IDO1 (2.5 ng/µL), L-Trp (100 µM), Triton X-100 (0.01%) and DMSO (5 µL). The inhibitors were serially diluted 3-fold for at least 8 different concentrations. After incubation at room temperature for 20 min, the reaction was stopped in its linear phase by addition of trichloroacetic acid solution (40 mL, 30% w/v), and the samples were incubated at 50 °C for 30 min. After centrifugation, 80 µl of supernatant from each well were used for HPLC analysis. The mobile phase for HPLC analysis was composed of 50% (v/v) of methanol and 50% of sodium citrate buffer (40 mM, pH 2.4) containing 400 µM sodium dodecyl sulphate. […] All assays were carried out in duplicates. The activity (Act) of each compound was calculated as Act = RT log(IC50) in analogy to the relation between the binding free energy and the Ki value. The ligand efficiency (LE) was calculated as LE = −Act/NHA, where NHA is the number of non-hydrogen atoms (heavy atoms) in the compound.

[3] = biological target: T2, hIDO1 (Homo sapiens, UniProt P14902); conditions: previously determined, cited from earlier work; for Inh. [%]: 200 µM; for IC50: read-out: IC50 [µM] (cellular)
T2 construct: The full ORF of hIDO1 was cloned into the mammalian expression vector pcDNA6/myc-His; myc-His (vector-encoded); host or cells: HEK 293 T
T2 sequence (P14902 whole entry): as above

[4] = system: HEK 293 T cells; conditions: previously determined, 200 µM, cited from earlier work
[5] = Compound solubility (qualitative remarks); type: physicochemical
[6] = system: HEK 293 T cells; assay: Cell viability / cellular toxicity (DAPI staining, cytometry); type: cell-based, human; conditions: 7 h
Procedure: (§1) We tested the cellular hIDO1 inhibitory activity and toxicity of 30 active compounds at a single concentration (Figure 6 and Table 8). As some of the aniline derivatives reacted with Ehrlich’s reagent (p-dimethylaminobenzaldehyde, p-DMAB) used to quantify kynurenine, the kynurenine content of these samples was determined by HPLC. To be able to detect also weak inhibition, compounds were tested at the high concentration of 200 µM (Figure 6A and B, filled bars), except for less soluble compounds (52, 148, 149 and 153), which were tested at a concentration of 50 µM (Figure 6A and B, empty bars).
Following DMSO (negative control) or inhibitor treatments, apoptotic cells were detected by 4′,6-diamidino-2-phenylindole (DAPI) staining. Briefly, after 7 h of incubation, cells were washed with PBS, resuspended in PBS with 1 µg/mL DAPI and immediately analysed using a BD LSR II cytometer. A 405 nm laser with 450/50 nm bandpass filter was used to collect data.

[7] = biological target: T2, hIDO1; assay: Cellular hIDO1 inhibition (kynurenine production) in transiently transfected HEK 293 T cells; type: cell-based
Procedure: as §1
The cDNA encoding hIDO1 (NCBI, NM 0021464.3) was purchased from Origene as pCMV6-Entry vector (RC206592). The full ORF of hIDO1 was cloned into the mammalian expression vector pcDNA6/myc-His from Invitrogen. Human embryonic kidney 293 T (HEK 293 T) cells were transiently transfected with the plasmid construct encoding hIDO1. A 75 cm^2 flask containing HEK 293 T cells at a confluency of 70% was transfected with jetPEI DNA transfection reagent (Polyplus-transfection), according to manufacturer’s protocol. A total of 20 µg of pcDNA-IDO1 along with 5 µg of pcDNA-GFP plasmid were used for the transfection; GFP was used to evaluate transfection efficiency prior to the cellular assays. 16–18 h post-transfection the 293 T cells were detached with trypsin, centrifuged, and re-suspended in 25 mL of DMEM medium without phenol red, supplemented with penicillin and streptomycin, 10% foetal bovine serum and 1 mM pyruvate (Gibco). Subsequently, 100 µL of cells were distributed to each well of two 96-well round-bottom plates that had been pre-loaded with 100 µL DMEM and the small organic test molecule in DMSO (for a final DMSO concentration of 2%). DMEM medium contains 78 µM L-Trp and was supplemented with 500 µM of L-Trp. Cells transfected with hIDO1 were incubated for 7 h at 37 °C in a CO2 incubator. The reaction was stopped in its linear phase by adding trichloroacetic acid (TCA) to the medium at a final concentration of 4%. Plates were centrifuged for 15 min at 4,000 rpm. 100 µL of supernatant was added to 100 µL of 2% (w/v) DMAB in glacial acetic acid. After 10 min the absorbance was measured at a wavelength of 480 nm to detect kynurenine formation. Alternatively, kynurenine content was determined by HPLC as done for the enzymatic assay.

[8] = ref 1 of Supporting Information (Röhrig et al. 2021)
[9] = ref 3 of Supporting Information (Röhrig et al. 2016)
[10] = ref 3 of Supporting Information (= main text ref 62)

Row | SMILES | IC50 [2] | melting point [°C] | LE [kcal/mol/HA] [2] [kcal/mol/HA] | further results
1 | CCOC(=O)c1[nH]nnc1-c1ccc(Cl)cc1 [Compound 65, reference compound] | > 1000 µM | – | – | IC50 [1]: 0.39 µM
2 | c1ccc(-c2nnc[nH]2)cc1 [Compound 133] | – | – | – | Inh. [%] [3, 8]: 0%; Tox. [%] [4, 8]: 0%
3 | O=C(Nc1ccc(Cl)cc1-c1nc[nH]n1)C1CCCC1 [Compound 151, N-(4-Chloro-2-(1H-1,2,4-triazol-3-yl)phenyl)cyclopentanecarboxamide] | > 100 µM | 197 to 199 | – | solubility (in words) [5]: strongly reduced solubilities
4 | O=C(Nc1ccc(Cl)cc1-c1nc[nH]n1)C1CC1 [Compound 149, N-(4-Chloro-2-(1H-1,2,4-triazol-3-yl)phenyl)cyclopropanecarboxamide] | 0.49 µM | 183 to 186 | 0.48 | Tox. [%] ([6]; compound 50 µM): 19 (2) %; solubility (in words) [5]: less soluble; inhibition at 50 µM [7]: 100%
5 | Clc1cc(Cl)c(-c2c[nH]nn2)cc1Cl [Compound 52, 4–(2,4,5-Trichlorophenyl)-1,2,3-triazole] | 33 µM | 190 to 192 | 0.44 | Tox. [%] ([6]; compound 50 µM): 7.9 (1) %; solubility (in words) [5]: less soluble; inhibition at 50 µM [7]: 44%
6 | Nc1ccc(Cl)cc1-c1nnc[nH]1 [Compound 11] | – | – | 0.78 | Inh. [%] [3, 8]: 100%; Tox. [%] [4, 8]: 0%
7 | O=C(c1cnn[nH]1)c1cc(Cl)ccc1O [Compound 111, (5-Chloro-2-hydroxyphenyl)(1H-1,2,3-triazol-5-yl)methanone] | 365 µM and 370 µM | 186 to 188 | 0.31 | Tox. [%] ([6]; compound 200 µM): 0 (0) %; inhibition at 200 µM [7]: 20%
8 | CCC(=O)Nc1ccc(Cl)cc1-c1nc[nH]n1 [Compound 147, N-(4-Chloro-2-(1H-1,2,4-triazol-3-yl)phenyl)propionamide] | 1.2 µM | 168 to 171 | 0.47 | Tox. [%] ([6]; compound 200 µM): 16 (1) %; inhibition at 200 µM [7]: 100%
9 | Clc1cccc(-c2cnn[nH]2)c1CCc1ccccc1 [Compound 13] | 14 µM | – | 0.33 | Inh. [%] [3, 9]: 76%; Tox. [%] [4, 10]: 71%; Tox. [%] ([4]; ref 3 of Supporting Information (= main text ref 62), listed as MMG-0472): 70%
10 | O=C(c1csnn1)c1cnn[nH]1 [Compound 119, (1,2,3-Thiadiazol-4-yl)(1H-1,2,3-triazol-5-yl)methanone] | 515 µM and 510 µM | 170 to 172 | 0.37 | Tox. [%] ([6]; compound 200 µM): 0 (0) %; inhibition at 200 µM [7]: 4.8%
11 | Oc1ccccc1-c1nnc[nH]1 [Compound 138] | – | – | 0.51 | Inh. [%] [3, 8]: 52%; Tox. [%] [4, 8]: 6%
12 | Clc1cccc(-c2nnc[nH]2)c1 [Compound 136] | – | – | 0.51 | Inh. [%] [3, 8]: 78%; Tox. [%] [4, 8]: 0%
13 | Clc1cccc(-c2cnn[nH]2)c1CCC1CCCC1 [Compound 40] | 9.5 µM | – | 0.36 | Inh. [%] [3, 9]: 71%; Tox. [%] [4, 10]: 22%
14 | O=C(Nc1ccc(Cl)cc1-c1nc[nH]n1)c1ccccc1 [Compound 153, N-(4-Chloro-2-(1H-1,2,4-triazol-3-yl)phenyl)benzamide] | 9.4 µM and 9.3 µM | – | – | Tox. [%] ([6]; compound 50 µM): 5.9 (8) %; solubility (in words) [5]: low solubility; also recorded: less soluble; inhibition at 50 µM [7]: 87%
15 | CCCC(=O)Nc1ccc(Cl)cc1-c1nc[nH]n1 [Compound 148, N-(4-Chloro-2-(1H-1,2,4-triazol-3-yl)phenyl)butyramide] | 24 µM and 25 µM | 156 to 158 | 0.35 | Tox. [%] ([6]; compound 50 µM): 17 (2) %; solubility (in words) [5]: less soluble; inhibition at 50 µM [7]: 93%
16 | Clc1cccc(-c2cnn[nH]2)c1 [Compound 30] | – | – | 0.73 | Inh. [%] [3, 8]: 95%; Tox. [%] [4, 8]: 0%
17 | Clc1cccc(-c2cnn[nH]2)c1Cl [Compound 47] | – | – | 0.49 | IC50 ([3]; ref 4 of Supporting Information (Röhrig et al. 2012)): > 100 µM
18 | Clc1cccc(-c2cnn[nH]2)c1/C=C/c1ccccc1 [Compound 41] | 49 µM | – | 0.29 | Inh. [%] [3, 9]: 32%; Tox. [%] [4, 10]: 58%
19 | Clc1cccc(-c2nn[nH]c2-c2cccc(Cl)c2)c1 [Compound 64, 4,5-Bis(3-chlorophenyl)-1,2,3-triazole, reference compound] | > 50 µM | – | – | IC50 [1]: 2.51 µM
20 | c1ccc(-c2cnn[nH]2)cc1 [Compound 19] | – | – | – | Inh. [%] [3, 8]: 93%; Tox. [%] [4, 8]: 3%
21 | Oc1ccccc1-c1cnn[nH]1 [Compound 29] | – | – | 0.64 | Inh. [%] [3, 8]: 95%; Tox. [%] [4, 8]: 0%
22 | O=C(Nc1ccc(Cl)cc1-c1nc[nH]n1)C1CCC1 [Compound 150, N-(4-Chloro-2-(1H-1,2,4-triazol-3-yl)phenyl)cyclobutanecarboxamide] | > 100 µM | 201 to 203 | – | solubility (in words) [5]: strongly reduced solubilities
23 | Cc1c(Cl)ccc(N)c1-c1nc[nH]n1 [Compound 156, 4-Chloro-3-methyl-2-(1H-1,2,4-triazol-3-yl)aniline] | 90 µM | 208 to 210 | 0.39 | –
24 | Oc1ccc(Cc2ccccc2)cc1-c1cnn[nH]1 [Compound 38, 4-Benzyl-2-(1H-1,2,3-triazol-5-yl)phenol] | 88 µM | 148 to 151 | 0.29 | –
25 | CNc1ccc(Cl)cc1-c1nc[nH]n1 [Compound 145, 4-Chloro-N-methyl-2-(1H-1,2,4-triazol-3-yl)aniline] | 8.6 µM and 8.7 µM | 207 to 209 | 0.49 | Tox. [%] ([6]; compound 200 µM): 0 (0) %; inhibition at 200 µM [7]: 93%
26 | Nc1ccc(Cl)c(N)c1-c1nc[nH]n1 [Compound 157, 4-Chloro-2-(1H-1,2,4-triazol-3-yl)benzene-1,3-diamine] | 1 µM | 212 to 214 | 0.55 | –
27 | O=C(c1cnn[nH]1)c1ccc(Br)cc1O [Compound 113, (4-Bromo-2-hydroxyphenyl)(1H-1,2,3-triazol-5-yl)methanone] | 8.2 µM | 192 to 194 | 0.46 | Tox. [%] ([6]; compound 200 µM): 0 (0) %; inhibition at 200 µM [7]: 36%
28 | Nc1ccccc1-c1nnc[nH]1 [Compound 139, 3–(2-aminophenyl)-1,2,4-triazole] | – | – | 0.65 | Inh. [%] [3, 8]: 100%; IC50 [3, 8]: 4.6 µM; Tox. [%] [4, 8]: 0%
29 | Clc1cccc(-c2c[nH]nn2)c1OCCc1ccccc1 [Compound 43, 4–(3-Chloro-2-phenethoxyphenyl)-1,2,3-triazole] | 31 µM | 96 to 99 | 0.29 | –
